From ChEMBL document CHEMBL4680175, “Sulfonamide-based ring-fused analogues for CAN508 as novel carbonic anhydrase inhibitors endowed with antitumor activity: Design, synthesis, and in vitro biological evaluation” (Eur J Med Chem, 2020)
pIC50, pKi: −log10 of the molar value.

How the values were obtained:
Carbonic anhydrase 1 = Carbonic anhydrase 1 (Homo sapiens, UniProt P00915); experiment: Inhibition of recombinant human carbonic anhydrase 1 preincubated with enzyme for 15 mins by phenol red dye based stopped flow CO2 hydrase assay
Sequence of Carbonic anhydrase 1 (P00915 whole entry): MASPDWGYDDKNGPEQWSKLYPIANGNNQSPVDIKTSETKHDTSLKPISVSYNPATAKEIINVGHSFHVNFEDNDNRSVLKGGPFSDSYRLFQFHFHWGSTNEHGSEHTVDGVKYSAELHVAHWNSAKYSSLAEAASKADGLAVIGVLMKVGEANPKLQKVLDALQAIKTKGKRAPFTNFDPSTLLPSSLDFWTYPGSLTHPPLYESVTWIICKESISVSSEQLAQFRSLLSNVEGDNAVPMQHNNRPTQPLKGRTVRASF

Carbonic anhydrase 2 = Carbonic anhydrase 2 (Homo sapiens, UniProt P00918); experiment: Inhibition of recombinant human carbonic anhydrase 2 preincubated with enzyme for 15 mins by phenol red dye based stopped flow CO2 hydrase assay
Carbonic anhydrase 9 = Carbonic anhydrase 9 (Homo sapiens, UniProt Q16790); experiment: Inhibition of recombinant human carbonic anhydrase 9 preincubated with enzyme for 15 mins by phenol red dye based stopped flow CO2 hydrase assay
Carbonic anhydrase 12 = Carbonic anhydrase 12 (Homo sapiens, UniProt O43570); experiment: Inhibition of recombinant human carbonic anhydrase 12 preincubated with enzyme for 15 mins by phenol red dye based stopped flow CO2 hydrase assay
Sequence of Carbonic anhydrase 12 (O43570 whole entry): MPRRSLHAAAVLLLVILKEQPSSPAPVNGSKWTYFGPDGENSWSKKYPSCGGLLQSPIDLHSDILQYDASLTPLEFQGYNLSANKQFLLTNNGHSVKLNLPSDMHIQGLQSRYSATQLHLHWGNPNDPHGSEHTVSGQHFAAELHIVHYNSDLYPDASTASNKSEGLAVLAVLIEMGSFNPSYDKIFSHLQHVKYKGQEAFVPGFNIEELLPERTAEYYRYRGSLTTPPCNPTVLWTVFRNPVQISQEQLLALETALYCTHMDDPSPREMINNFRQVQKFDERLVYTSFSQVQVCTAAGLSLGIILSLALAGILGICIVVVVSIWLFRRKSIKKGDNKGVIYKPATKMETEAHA

[1] = target: Cyclin-dependent kinase 2/cyclin E1 (Homo sapiens, UniProt P24941); experiment: Inhibition of CDK2/cyclin E (unknown origin) expressed in baculovirus infected Sf21 insect cells using histone H1 as substrate in presence of [gamma33P]ATP
CDK9/cyclin T1 = CDK9/cyclin T1 (Homo sapiens, UniProt P50750); experiment: Inhibition of human full-length N-terminal GST/His6-tagged CDK9 (1 to 372 residues)/His6-tagged Cyclin-T1 (1 to 726 residues) expressed in sf9 cells using (YSPTSPS)2KK peptide as substrate in presence of [gamma33P]ATP
Sequence of CDK9/cyclin T1 (O60563 whole entry, the tested form may be a part): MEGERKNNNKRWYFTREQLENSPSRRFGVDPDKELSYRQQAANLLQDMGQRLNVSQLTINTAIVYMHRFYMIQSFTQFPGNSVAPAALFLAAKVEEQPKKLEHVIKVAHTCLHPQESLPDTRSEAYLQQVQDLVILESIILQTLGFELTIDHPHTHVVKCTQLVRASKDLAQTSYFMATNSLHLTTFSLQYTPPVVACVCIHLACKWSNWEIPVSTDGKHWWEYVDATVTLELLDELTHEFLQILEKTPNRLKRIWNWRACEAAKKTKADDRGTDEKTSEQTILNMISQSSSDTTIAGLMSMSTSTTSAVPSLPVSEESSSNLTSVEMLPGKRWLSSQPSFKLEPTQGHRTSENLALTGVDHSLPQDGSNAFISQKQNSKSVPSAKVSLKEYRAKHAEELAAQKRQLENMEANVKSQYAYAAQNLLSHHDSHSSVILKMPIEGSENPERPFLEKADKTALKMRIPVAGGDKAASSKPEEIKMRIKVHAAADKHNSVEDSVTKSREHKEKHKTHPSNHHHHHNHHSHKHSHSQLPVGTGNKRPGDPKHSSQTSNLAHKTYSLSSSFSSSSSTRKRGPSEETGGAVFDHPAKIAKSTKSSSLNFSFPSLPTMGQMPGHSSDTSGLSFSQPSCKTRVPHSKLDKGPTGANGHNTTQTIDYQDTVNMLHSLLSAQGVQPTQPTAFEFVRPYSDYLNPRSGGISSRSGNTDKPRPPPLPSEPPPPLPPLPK
Sequence of CDK9/cyclin T1 (P50750 whole entry, the tested form may be a part): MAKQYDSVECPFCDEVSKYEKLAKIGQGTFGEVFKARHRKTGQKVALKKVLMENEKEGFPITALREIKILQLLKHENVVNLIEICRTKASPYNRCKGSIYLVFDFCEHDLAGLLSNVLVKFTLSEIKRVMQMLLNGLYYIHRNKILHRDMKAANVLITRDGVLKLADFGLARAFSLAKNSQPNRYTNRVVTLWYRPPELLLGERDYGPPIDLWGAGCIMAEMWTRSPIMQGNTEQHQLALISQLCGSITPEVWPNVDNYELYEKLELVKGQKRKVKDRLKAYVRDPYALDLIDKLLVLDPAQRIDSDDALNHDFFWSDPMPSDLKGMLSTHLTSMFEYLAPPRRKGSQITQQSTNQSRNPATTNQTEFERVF

Q: With Nc1nn2c(-c3ccccc3)ccnc2c1/N=N/c1ccc(S(N)(=O)=O)cc1 as the compound, how does the pKi (Carbonic anhydrase 1) read?
A: 6.34

Q: What about the pKi (Carbonic anhydrase 2) of the same compound?
A: 7.56

Q: What about the pKi (Carbonic anhydrase 9) of the same compound?
A: 7.50

Q: And the pKi (Carbonic anhydrase 12)?
A: 7.60

Q: And the pIC50 [1]?
A: < 4.90

Q: And the pIC50 (CDK9/cyclin T1)?
A: < 4.90

Q: Nc1nn2c(-c3ccc(Cl)cc3)ccnc2c1/N=N/c1ccc(S(N)(=O)=O)cc1 was tested. Which pKi (Carbonic anhydrase 1) did it give?
A: 6.26

Q: What about the pKi (Carbonic anhydrase 2) of the same compound?
A: 7.63

Q: What about the pKi (Carbonic anhydrase 9) of the same compound?
A: 7.25

Q: What about the pKi (Carbonic anhydrase 12) of the same compound?
A: 7.35

Q: And the pIC50 [1]?
A: 5.19

Q: And the pIC50 (CDK9/cyclin T1)?
A: < 4.90

Q: With Nc1nn2c(-c3ccc([N+](=O)[O-])cc3)ccnc2c1/N=N/c1ccc(S(N)(=O)=O)cc1 as the compound, how does the pKi (Carbonic anhydrase 1) read?
A: 5.67

Q: What about the pKi (Carbonic anhydrase 2) of the same compound?
A: 7.45

Q: And the pKi (Carbonic anhydrase 9)?
A: 7.17

Q: And the pKi (Carbonic anhydrase 12)?
A: 7.84

Q: And the pIC50 [1]?
A: < 4.90

Q: What about the pIC50 (CDK9/cyclin T1) of the same compound?
A: < 4.90

Q: Which results are given for COc1ccc(-c2ccnc3c(/N=N/c4ccc(S(N)(=O)=O)cc4)c(N)nn23)cc1?
A: pKi (Carbonic anhydrase 1): 6.35; pKi (Carbonic anhydrase 2): 8.26; pKi (Carbonic anhydrase 9): 7.53; pKi (Carbonic anhydrase 12): 7.05; pIC50 [1]: < 4.90; pIC50 (CDK9/cyclin T1): < 4.90

Q: Nc1nn2c(-c3ccc(Br)cc3)ccnc2c1/N=N/c1ccc(S(N)(=O)=O)cc1 was tested. Which pKi (Carbonic anhydrase 1) did it give?
A: 6.11

Q: And the pKi (Carbonic anhydrase 2)?
A: 7.41

Q: And the pKi (Carbonic anhydrase 9)?
A: 7.19

Q: And the pKi (Carbonic anhydrase 12)?
A: 7.27

Q: What about the pIC50 [1] of the same compound?
A: 5.10

Q: And the pIC50 (CDK9/cyclin T1)?
A: < 4.90
